Reference: patent US20090170917A1, “Acid Mimic Compounds for the Inhibition of Isoprenyl-S-Cysteinyl Methyltransferase” (priority 2007, published 2009)

Key:
[1] = tested on: dermal neutrophil infiltration, neutrophil marker myeloperoxidase (MPO); test: Mouse ear model of TPA-induced contact inflammation: MPO inhibition (dermal neutrophil infiltration); type: in vivo; conditions: for MPO (myeloperoxidase) inhibition (statement in words): in vivo activity, no dose stated; for % Inhibition MPO: TPA-treated mouse ear, 24 hours
From the text: (§1) G. et al., Anti-inflammatory Drugs, Clin. Pharmacol. Ther. 16, 900-4 (1974); Young et al., Tachyphylaxis in 12-Otetradecanoylphorbolacetate-and Arachidonic Acid-Induced Ear Edema; J. Invest. Dermatol. 80:48-52, (1983); Tramposch et al., In Vivo Models of Inflammation, (Morgan D W, Marshall L A eds), Birkhaüser Verlag: Basel, pp 179-204, 1999; and Gordon et al., Topical N-Acetyl-S-Farnesyl-L-Cysteine Inhibits Mouse Skin Inflammation, and Unlike Dexamethasone, Its Effects Are Restricted to the Application Site, J. Invest. Dermatol., 128(3):643-54, 2008 March)]. Moreover, the mouse ear model has been used by various groups to identify and compare members of differing classes of anti-inflammatory agents with multiple mechanisms of action (reviewed in Tramposch et al., 1999, supra).
To assay for inhibition of dermal neutrophil infiltration by S-isoprenyl and S-farnesyl cysteine compounds, a standard method was used (see Bradley et al., 1982, supra; Young et al., 1983, supra; De Young et al, “Edema and Cell Infiltration in the Phorbol Ester-treated Mouse Ear are Temporally Separate and can be Differentially Modulated by Pharmacologic Agents”, Agents Actions, 26(3-4): 335-41 (March 1989); and Rao et al. (1993) Comparative Evaluation of Arachidonic Acid (AA)-and Tetradecanoylphorbol Acetate (TPA)-Induced Dermal Inflammation, Inflammation 17:723-41). Briefly, we homogenized 6 mm biopsy punches taken from both compound-treated ears as well as TPA-treated and non-treated control groups. We quantitated the levels of MPO by a calorimetric reaction that was measured spectrophotometrically. The percent inhibition of neutrophil infiltration by each S-isoprenyl and S-farnesyl cysteine compound was determined by comparing the average MPO levels in the presence and absence of these compounds. […] Gordon et al., “Topical N-acetyl-5-farnesyl-L-cysteine Inhibits Mouse Skin Inflammation, and Unlike Dexamethasone, its Effects Are Restricted to the Application Site”, J. Invest. Derm., Vol. 128 pp. 643-654 (2008).

[2] = tested on: TPA-treated mouse ears (erythema); test: Mouse ear model of TPA-induced contact inflammation: erythema inhibition (Δa* redness, chroma meter); type: in vivo; conditions: for erythema inhibition (statement in words): in vivo activity, no dose stated; for % Inhibition Erythema: TPA-treated mouse ear, 24 hours
From the text: as §1
Another well documented biomarker of skin inflammation is skin redness, termed erythema, which is caused by capillary congestion and dilation in response to various chemical and environmental insults (see Denig, N. I. et al., Irritant Contact Dermatitis. Clues to Causes, Clinical Characteristics, and Control, Postgrad Med., May (1998); 103(5):199-200, 207-8, 212-3). […] The percent inhibition of erythema was determined by taking the average Δa* redness value of compound-treated ears and dividing it by the average Δa* value of 12 ears that only received TPA and subtracting that value from 100%. These values were corrected for the Δa* value of non TPA-treated mouse ears of littermate controls. […] Gordon et al., “Topical N-acetyl-5-farnesyl-L-cysteine Inhibits Mouse Skin Inflammation, and Unlike Dexamethasone, its Effects Are Restricted to the Application Site”, J. Invest. Derm., Vol. 128 pp. 643-654 (2008).

[3] = tested on: TPA-treated mouse ears (edema); test: Mouse ear model of TPA-induced contact inflammation: edema inhibition (ear thickness); type: in vivo; conditions: for edema inhibition (statement in words): in vivo activity, no dose stated; for % Inhibition Edema: TPA-treated mouse ear, 24 hours
From the text: as §1
The protocol for inducing in vivo acute contact inflammation on the ears of live mice has been described elsewhere (reviewed in Tramposch, 1999, supra). In brief, mice were sedated and their ears were treated with 1.2 μg/20 uL TPA (i.e., tetradecanoylphorbol-13-acetate). […] After 24 hours, the mice were sacrificed and edema was measured by taking micrometer readings of each ear. The percent inhibition of edema was determined by taking the average ear thickness of compound-treated ears and dividing it by the average thickness of 12 ears that only received TPA and subtracting that value from 100%. These values were corrected for the thickness of normal, non TPA-treated mouse ears of littermate controls. […] ED50 values were calculated as described in Gordon et al., “Topical N-acetyl-5-farnesyl-L-cysteine Inhibits Mouse Skin Inflammation, and Unlike Dexamethasone, its Effects Are Restricted to the Application Site”, J. Invest. Derm., Vol. 128 pp. 643-654 (2008).

[4] = tested on: neutrophil, macrophage, and platelet responses; conditions: in vitro, background statement; cited from earlier work
[5] = tested on: dermal inflammation; conditions: mice, background statement; cited from earlier work
[6] = target: membrane-associated isoprenyl-5-cysteinyl methyltransferase (Homo sapiens, UniProt O60725); conditions: background statement; cited from earlier work
Sequence of membrane-associated isoprenyl-5-cysteinyl methyltransferase (O60725 whole entry): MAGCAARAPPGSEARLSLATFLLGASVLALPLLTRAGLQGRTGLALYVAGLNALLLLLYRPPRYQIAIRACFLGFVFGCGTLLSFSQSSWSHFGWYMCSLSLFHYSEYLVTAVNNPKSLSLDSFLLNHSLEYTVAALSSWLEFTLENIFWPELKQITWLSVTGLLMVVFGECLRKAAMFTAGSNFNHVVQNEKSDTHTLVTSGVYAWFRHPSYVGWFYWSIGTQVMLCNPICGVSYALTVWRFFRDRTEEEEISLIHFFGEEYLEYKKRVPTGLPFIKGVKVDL

Structure (SMILES)	MPO (myeloperoxidase) inhibition (statement in words) [1]	erythema inhibition (statement in words) [2]	% Inhibition Erythema ([2]; topical dose 0.8 mg/20 μL)	edema inhibition (statement in words) [3]	block of neutrophil, macrophage and platelet responses [4]	reduction of dermal inflammation [5]	inhibition of isoprenyl-S-cysteinyl methyltransferase (mode) [6]	% Inhibition MPO ([1]; topical dose 0.8 mg/20 μL)	% Inhibition Edema ([3]; topical dose 0.8 mg/20 μL)	% Inhibition MPO ([1]; topical dose 0.2 mg/20 μL)	% Inhibition Erythema ([2]; topical dose 0.2 mg/20 μL)	% Inhibition Edema ([3]; topical dose 0.2 mg/20 μL)
CC(=O)N[C@@H](CSC/C=C(\C)CC/C=C(\C)CCC=C(C)C)C(=O)NNc1ccccc1 [Compound C]	MPO (myeloperoxidase) inhibition	erythema inhibition	— 13.41 ± 11.92%	edema inhibition	–	–	–	–	–	–	–	–
CC(=O)NNC(=O)[C@H](CSC/C=C(\C)CC/C=C(\C)CCC=C(C)C)NC(C)=O [Compound D]	MPO (myeloperoxidase) inhibition	erythema inhibition	–	–	–	–	–	–	–	–	–	–
CC(=O)N[C@@H](CSCC=C(C)CCC=C(C)CCC=C(C)C)C(=O)O [AFC, N-acetyl-5-farnesyl-L-cysteine]	–	–	–	–	block some neutrophil, macrophage, and platelet responses in vitro	effectively reduces dermal inflammation in mice	competitive inhibitor	–	–	–	–	–
CC(=O)N[C@@H](CSC/C=C(\C)CC/C=C(\C)CCC=C(C)C)C(=O)NN [Compound A]	MPO (myeloperoxidase) inhibition	erythema inhibition	–	edema inhibition	–	–	–	— 93.53 ± 1.13%	— 42.36 ± 1.99%	–	–	–
CC(=O)N[C@@H](CSC/C=C(\C)CC/C=C(\C)CCC=C(C)C)C(=O)NO [Compound B]	MPO (myeloperoxidase) inhibition	erythema inhibition	–	edema inhibition	–	–	–	— 87.45 ± 1.37%	— 33.64 ± 3.03%	–	–	–
CNNC(=O)[C@H](CSC/C=C(\C)CC/C=C(\C)CCC=C(C)C)NC(C)=O [Compound E]	MPO (myeloperoxidase) inhibition	erythema inhibition	— 7.68 ± 8.15%	edema inhibition	–	–	–	–	— 5.85 ± 7.02%	–	–	–
CC(C)=CCC/C(C)=C/CC/C(C)=C/CSC[C@H](NC(=O)CCC(F)(F)F)C(=O)NN [Compound F]	MPO (myeloperoxidase) inhibition	erythema inhibition	–	edema inhibition	–	–	–	–	–	21.33 ± 12.68 — %	11.04 ± 7.28 — %	7.86 ± 0.98 — %
